Measurements from patent US11986458B1, “Natural and synthetic andrographolides compounds for the treatment of skeletal muscular dystrophies” (Innobiosciences LLC, priority 2018, dated 2024).

Columns and labels:
MES-13 cells = settings: cited from earlier work; for intracellular oxidative states: high glucose cultured MES-13 cells
mdx mice [1] = assay: Isometric force of isolated muscles from treated exercised mdx mice; type: in vivo, mouse; settings: treadmill exercise, andrographolide 1.0 mg/kg/day ip, prednisone 5 mg/kg, single electro-stimulation and high frequency stimulation
Protocol: We used 12-week-old control or mdx male mice of the C57BL/10 ScSn strain. The animals were kept at room temperature with a 24-hour night-day cycle and were fed with pellets and water ad libitum. Experimental exercise involved running the mice on a treadmill three times per week for 30 minutes each session at 12 m/minute over three or four months. […]
The isometric force of isolated muscles was measured as described previously. Briefly, optimum muscle length (Lo) and stimulation voltage were determined from micromanipulation of muscle length to produce maximum isometric twitch force. Maximum isometric tetanic force (Po) was determined from the plateau of the frequency-force relationship after successive stimulations at 1 to 200 Hz for 450 ms, with 2-minute rests between stimuli. […]

mdx mice [2] = assay: Skeletal muscle histology (H&E) and collagen type I indirect immunofluorescence, tibialis anterior of mdx mice; type: in vivo, mouse; settings: 3 months administration; for damaged areas in muscle, Hematoxylin and Eosin staining: tibialis anterior, compared to vehicle-treated mdx mice
Protocol: We used 12-week-old control or mdx male mice of the C57BL/10 ScSn strain. The animals were kept at room temperature with a 24-hour night-day cycle and were fed with pellets and water ad libitum. Experimental exercise involved running the mice on a treadmill three times per week for 30 minutes each session at 12 m/minute over three or four months. See Morales, MG. et al., Reducing CTGF/CCN2 Slows Down MDX Muscle Dystrophy And Improves Cell Therapy, 22 Hum Mol Genet 4938 (2013), DeLuca, A. et al., Enhanced Dystrophic Progression In MDX Mice By Exercise And Beneficial Effects Of Taurine And Insulin-Like Growth Factor-1, 304 J Pharmacol Exp Ther 453 (2003), DeLuca, A. et al., A Multidisciplinary Evaluation Of The Effectiveness Of Cyclosporine A In Dystrophic MDX Mice, 166 Am J Pathol 477 (2005), Cabello-Verrugio, C. et al., Angiotensin II Receptor Type 1 Blockade CTGF/CCN2-Mediated Damage And Fibrosis In Normal And Dytrophic Skeletal Muscles, 16 J Cell Mol Med 752 (2012). Four experimental groups were designed: animals in the first group were injected intraperitoneally (ip) with andrographolide (1.0 mg/kg/day). Animals in the second group were treated with prednisone (5 mg/kg). Third group, animals were treated with prednisone together with andrographolide. Fourth group animals were injected with saline. At the end of the experiment the muscles were dissected and removed under anesthesia (isofluorane gas) and then the animals were sacrificed. Tissues were used for electrophysiological measurement or rapidly frozen and stored at −80° C. until processing. All protocols were conducted in strict accordance with guidelines and with the formal approval of the Animal Ethics Committee of the Pontificia Universidad Católica de Chile.
Architecture and histology were detected by hematoxylin-eosin (H&E) stain in transverse sections of muscle. See Morales, MG. et al., CTGF/CCN-2 Over-Expression Can Directly Induce Features Of Skeletal Muscle Dystrophy, 225 J Pathol 490 (2011). Collagen Type I was determined as described in Morales, MG. et al., Reducing CTGF/CCN2 Slows Down MDX Muscle Dystrophy And Improves Cell Therapy, 22 Hum Mol Genet 4938 (2013).
Tissue samples evaluated using collagen type I immuno-staining. […] We posit that this prevents tissue damage in mdx mice.

DMD = settings: glucocorticoids such as prednisone; cited from earlier work
mdx mice [3] = assay: Life expectancy / survival of mdx mice under life-long treatment; type: in vivo, mouse
Protocol: Groups of mdx mice were treated with or without andrographolide (1.0 mg/kg/day) 3 times per weeks starting at one month old until they die naturally. The animals were maintained under free food and water access all the time. Days of death was recorded.
To evaluate whether andrographolide affects survival in dystrophic mice we perform a long term treatment with andrographolide through intra-peritoneal injections, three times per weeks starting at one month old until they die naturally, in order to determine the effects over life expectancy in mdx mice.

[4] = tested on: patients with Duchenne Muscular Dystrophy; assay: PedsQL for Duchenne Muscular Dystrophy Module questionnaire in pediatric DMD patients; type: in vivo, human; settings: 70 mg orally twice per day
Protocol: Thirteen pediatric patients were derived from the Chilean Duchenne Association with confirmed clinical diagnostic. Of the thirteen patients, seven of them used chronic glucocorticoid treatment (Table A). Two of the patients had disease advanced enough so that the patients were no longer ambulatory.
All patients, both those treated with glucocorticoid and those not requiring glucocorticoid, received 70 mg andrographolide (as a standardized extract) orally two times per day. Treatment periods ranged from one month to more than twelve months. […] (Table B)
Thirteen (13) children with DMD of different ages (ranging from 4 to 14 years old) were treated with Andrographis paniculata capsules (either taking corticosteroids or not) for a variable period of time (ranging from one month to two years) (Table A).
Each parent or tutor received a questionnaire with different scores parameters to be completed. The parents were asked to fill out the Pediatric Quality of Life Inventory TM questionnaire (PedsQL for Duchenne Muscular Dystrophy Module) of their perception about; Quality of life, Sleep, Pain, Cold, Walk/Move, Play/Run, Jump, Coordination, Force and Mood of children during Andrographis paniculata treatment (Table B).

mdx mouse = settings: cited from earlier work
CTGF = settings: in vitro (skeletal cells); cited from earlier work
[5] = tested on: cholestasis-induced apoptosis; settings: in vivo; cited from earlier work
dystrophin [6] = settings: mdx mice; cited from earlier work
dystrophin [7] = settings: cited from earlier work
[8] = 12 DMD patients over a six-month period

In the case of `C=C1CCC2C(C)(CO)C(O)CCC2(C)C1C=CC1=CCOC1=O` (stereo not drawn) [AP2, 14-deoxy-11,12-didehydro-andrographolide], the “reduction of apoptosis marker caspase-3, fibrosis marker TGF-β1, and PAI-1” value (MES-13 cells; MES-13 cells, comparison AP2 vs AP1) is given as “more potent activity than AP1”, the “phenotypes indicating diabetic nephropathy” value (MES-13 cells; MES-13 cells) is given as “reduced the phenotypes indicating diabetic nephropathy” and the “antioxidant ability in a cellular environment” value (MES-13 cells) is given as “do not have antioxidant ability”. For the same molecule, the intracellular oxidative states (MES-13 cells) was “reduced intracellular oxidative states”.

In the case of `C[C@]12C=CC(=O)C=C1CC[C@@H]1[C@@H]2C(=O)C[C@@]2(C)[C@H]1CC[C@]2(O)C(=O)CO` [prednisone, reference compound], the “isolated muscle strength (maximal switch force and tetanic contraction)” value (mdx mice [1]) is reported as “improved muscle contraction”, the “fibrosis, collagen type I immuno-staining” value (mdx mice [2]) is reported as “diminish fibrosis” and the “damaged areas in muscle, Hematoxylin and Eosin staining” value (mdx mice [2]) is reported as “prevented the increase of damaged areas”. For the same molecule, the side effects (DMD) was “severe side effects”.

With `C=C1CC[C@@H]2[C@](C)(CO)[C@H](O)CC[C@@]2(C)[C@@H]1C/C=C1/C(=O)OC[C@H]1O` [andrographolide, 3-[2-[Decahydro-6-hydroxy-5-(hydroxymethyl)-5,8a-dimethyl-2-methylene-1-napthalenyl]ethylidene]dihydro-4-hydroxy-2(3H)-furanone] the “isolated muscle strength (maximal switch force and tetanic contraction)” value (mdx mice [1]) was “improved muscle contraction at similar levels than the induced by prednisone”, the “fibrosis, collagen type I immuno-staining” value (mdx mice [2]) was “diminish fibrosis” and the “damaged areas in muscle, Hematoxylin and Eosin staining” value (mdx mice [2]) was “prevented the increase of damaged areas”. For the same molecule, the total life expectancy (mdx mice [3]; mdx mice, 1.0 mg/kg/day ip three times per week from one month old until natural death, n=6) was “around 21.7±2.35 months”, the “increase of life expectancy of dystrophic mice” value (mdx mice [3]; versus vehicle-treated mdx mice) was 15% and the “improvement in quality of life, quality of sleep, pain, colds, coordination, force and mood” value ([4]; 13 DMD patients) was “important improvement”. The “overall effect on PedsQL parameters” value ([4]; all 13 DMD patients, one month to more than twelve months) was “slight to important improvement”, the muscle associated fibrosis (mdx mouse; animal model of DMD, the mdx mouse) was “significantly reduces muscle associated fibrosis” and the “exercise resistance in dystrophic mice” value (mdx mouse; mdx mouse) was “increase exercise resistance”. For the same molecule, the “skeletal muscle force in dystrophic muscles” value (mdx mouse; mdx mouse) was “increase”, the “expression of pro-fibrotic factor CTGF” value (CTGF) was “able to inhibit” and the “phenotypes indicating diabetic nephropathy” value (MES-13 cells; MES-13 cells) was “reduced the phenotypes indicating diabetic nephropathy”. The “antioxidant ability in a cellular environment” value (MES-13 cells) was “do not have antioxidant ability”, the intracellular oxidative states (MES-13 cells) was “reduced intracellular oxidative states” and the “protection against cholestasis-induced apoptosis” value [5] was “potent protector”.

For gentamicin, the “dystrophin expression in muscle fibers above normal levels” value (dystrophin [6]) is given as 20%, the clinical benefits (dystrophin [7]; [8]) is given as “no clinical benefits were observed” and the “patients with dystrophin expression detected” value (dystrophin [7]; [8]) is given as 6 of the 12. The “muscle strength and re-expression of dystrophin in muscles” value (dystrophin [7]; one of the studies on DMD patients) was “beneficial effect on muscle strength and a re-expression of dystrophin in muscles”.
